Assay results taken from PubChem BioAssay (NCI).
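In this assay, cells in 96-well plates receive the compound at five concentrations for 48 hours. Endpoints are linearly interpolated between the surrounding concentrations. GI50: concentration for 50% inhibition of growth. TGI denotes the concentration required for complete inhibition of growth.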

Key:
Test in all cases: NCI-60 cell line screen, 48 h
[1] = system: SF-268 CNS
[2] = system: MOLT-4 leukemia
[3] = system: RXF 393 renal
[4] = system: UO-31 renal
[5] = system: SNB-19 CNS
[6] = system: ACHN renal
[7] = system: SK-MEL-2 melanoma
[8] = system: NCI-H23 lung
[9] = system: HL-60(TB) leukemia
[10] = system: A549 NSCLC
[11] = system: KM12 colon
[12] = system: HS 578T breast
[13] = system: PC-3 prostate
[14] = system: OVCAR-5 ovarian
[15] = system: SNB-75 CNS
[16] = system: MALME-3M melanoma
[17] = system: SF-295 CNS
[18] = system: K-562 leukemia
[19] = system: SN12C renal
[20] = system: NCI-H226 lung
[21] = system: HCC-2998 colon
[22] = system: HCT-15 colon
[23] = system: COLO 205 colon
[24] = system: UACC-257 melanoma
[25] = system: UACC-62 melanoma
[26] = system: SK-OV-3 ovarian
[27] = system: SW-620 colon
[28] = system: NCI-H460 lung
[29] = system: SF-539 CNS
[30] = system: HT29 colon
[31] = system: TK-10 renal
[32] = system: HCT-116 colon
[33] = system: OVCAR-4 ovarian
[34] = system: HOP-92 NSCLC
[35] = system: DU-145 prostate
[36] = system: EKVX NSCLC
[37] = system: MCF7 breast
[38] = system: LOX IMVI melanoma
[39] = system: SR leukemia
[40] = system: M14 melanoma
[41] = system: 786-0 renal
[42] = system: MDA-MB-435
[43] = system: CAKI-1 renal
[44] = system: NCI/ADR-RES ovarian
[45] = system: HOP-62 NSCLC
[46] = system: MDA-MB-231 breast
[47] = system: OVCAR-8 ovarian
[48] = system: U251 CNS
[49] = system: NCI-H522 lung
[50] = system: RPMI-8226 leukemia
[51] = system: T-47D breast
[52] = system: A498 renal
[53] = system: OVCAR-3 ovarian
[54] = system: SK-MEL-28 melanoma
[55] = system: SK-MEL-5 melanoma
[56] = system: IGROV1 ovarian
[57] = system: BT-549 breast
[58] = system: CCRF-CEM leukemia

For CCCCCCCCCCCCOC1C(C(COC2OC(C(O)CN3CCCCC3)C3OC(C)(C)OC23)NC(=O)Nc2ccccc2)OC2OC(C)(C)OC21 (stereo unspecified), the GI50 [1] was 10.3 µM, the TGI [1] was 25.4 µM and the GI50 [2] was 1.29 µM. For the same compound, the TGI [2] was 5.54 µM, the GI50 [3] was 6.03 µM and the TGI [3] was 26.1 µM. The GI50 [4] was 10.3 µM, the TGI [4] was 28.2 µM and the GI50 [5] was 18.2 µM. The TGI [5] was 44.5 µM, the GI50 [6] was 17.3 µM and the TGI [6] was 34.5 µM. The GI50 [7] was 19.6 µM, the TGI [7] was 41.6 µM and the GI50 [8] was 17.9 µM. It also gave a TGI [8] of 37.1 µM, a GI50 [9] of 3.96 µM and a TGI [9] of 11.3 µM. The GI50 [10] was 11.4 µM, the TGI [10] was 38 µM and the GI50 [11] was 7.06 µM. It also gave a TGI [11] of 18.7 µM, a GI50 [12] of 8.75 µM and a TGI [12] of 23.6 µM. For the same compound, the GI50 [13] was 10.7 µM, the TGI [13] was 24.9 µM and the GI50 [14] was 18.5 µM. It also gave a TGI [14] of 34.3 µM, a GI50 [15] of 13.6 µM and a TGI [15] of 29.8 µM. For the same compound, the GI50 [16] was 10.1 µM, the TGI [16] was 22.2 µM and the GI50 [17] was 15.3 µM. For the same compound, the TGI [17] was 31.7 µM, the GI50 [18] was 2.06 µM and the TGI [18] was 5.65 µM. It also gave a GI50 [19] of 16 µM, a TGI [19] of 33.2 µM and a GI50 [20] of 17 µM. For the same compound, the TGI [20] was 38.1 µM, the GI50 [21] was 4.61 µM and the TGI [21] was 9.97 µM. The GI50 [22] was 8.6 µM, the TGI [22] was 24.3 µM and the GI50 [23] was 3.86 µM. It also gave a TGI [23] of 16.8 µM, a GI50 [24] of 19.3 µM and a TGI [24] of 38 µM. It also gave a GI50 [25] of 15.9 µM, a TGI [25] of 31 µM and a GI50 [26] of 20.4 µM. For the same compound, the TGI [26] was 44.1 µM, the GI50 [27] was 4.11 µM and the TGI [27] was 14.7 µM. For the same compound, the GI50 [28] was 4.52 µM, the TGI [28] was 16.9 µM and the GI50 [29] was 16.6 µM. It also gave a TGI [29] of 31.4 µM, a GI50 [30] of 2 µM and a TGI [30] of 4.73 µM. It also gave a GI50 [31] of 10.2 µM, a TGI [31] of 26 µM and a GI50 [32] of 4.54 µM. It also gave a TGI [32] of 12.7 µM, a GI50 [33] of 9.48 µM and a TGI [33] of 27.3 µM. The GI50 [34] was 6.86 µM, the TGI [34] was 19.7 µM and the GI50 [35] was 11.9 µM. The TGI [35] was 25.7 µM, the GI50 [36] was 14.4 µM and the TGI [36] was 30.2 µM. It also gave a GI50 [37] of 3.16 µM, a TGI [37] of 10.6 µM and a GI50 [38] of 7.87 µM. For the same compound, the TGI [38] was 26.1 µM, the GI50 [39] was 1.91 µM and the TGI [39] was 4.3 µM. For the same compound, the GI50 [40] was 7.75 µM, the TGI [40] was 19.4 µM and the GI50 [41] was 14.1 µM. The TGI [41] was 30.5 µM, the GI50 [42] was 7.02 µM and the TGI [42] was 20.8 µM. It also gave a GI50 [43] of 17.7 µM, a TGI [43] of 35.7 µM and a GI50 [44] of 15.3 µM. It also gave a TGI [44] of 33.3 µM, a GI50 [45] of 16.1 µM and a TGI [45] of 32.9 µM. For the same compound, the GI50 [46] was 12.8 µM, the TGI [46] was 27.4 µM and the GI50 [47] was 15.5 µM. The TGI [47] was 39.7 µM, the GI50 [48] was 9.46 µM and the TGI [48] was 27.2 µM. The GI50 [49] was 17.5 µM, the TGI [49] was 48 µM and the GI50 [50] was 5.32 µM. For the same compound, the TGI [50] was 15.3 µM, the GI50 [51] was 14.5 µM and the TGI [51] was 37.8 µM. For the same compound, the GI50 [52] was 16.9 µM, the TGI [52] was 32.7 µM and the GI50 [53] was 14.7 µM. For the same compound, the TGI [53] was 34.6 µM, the GI50 [54] was 7.89 µM and the TGI [54] was 15.3 µM. For the same compound, the GI50 [55] was 8.66 µM, the TGI [55] was 21.7 µM and the GI50 [56] was 16.9 µM. It also gave a TGI [56] of 39.5 µM, a GI50 [57] of 14.9 µM and a TGI [57] of 29.5 µM. The GI50 [58] was 0.863 µM and the TGI [58] was 2.23 µM.
